Experimental data taken from ChEMBL document CHEMBL1201862, “PubChem BioAssay data set” (2004).
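Five concentrations, 48 hours, 96-well plates. The concentration for 50% growth inhibition is given as GI50.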 Calls of active or inactive are those of the source. Cut-off read from the data, not from the text of the source: active = GI50 up to about 1.1 µM and inactive = higher.

Key:
Assay in all cases: inhibition of tumour cell growth, NCI panel, 48 h
HCC 2998 = system: HCC 2998
HCT-116 = system: HCT-116
HCT-15 = system: HCT-15
HL-60 = system: HL-60
HOP-62 = system: HOP-62
KM12 = system: KM12
MOLT-4 = system: MOLT-4
NCI-H226 = system: NCI-H226
NCI/ADR-RES = system: NCI/ADR-RES
OVCAR-3 = system: OVCAR-3
OVCAR-4 = system: OVCAR-4
OVCAR-5 = system: OVCAR-5
OVCAR-8 = system: OVCAR-8
PC-3 = system: PC-3
RPMI-8226 = system: RPMI-8226
RXF 393 = system: RXF 393
SK-MEL-28 = system: SK-MEL-28
SNB-19 = system: SNB-19
SNB-75 = system: SNB-75
UACC-257 = system: UACC-257

SMILES	GI50 (HCC 2998)	GI50 (HCT-116)	GI50 (HCT-15) [µM]	GI50 (HL-60)	GI50 (HOP-62)	GI50 (KM12)	GI50 (MOLT-4)	GI50 (NCI-H226)	GI50 (NCI/ADR-RES)	GI50 (OVCAR-3)	GI50 (OVCAR-4)	GI50 (OVCAR-5)	GI50 (OVCAR-8)	GI50 (PC-3)	GI50 (RPMI-8226)	GI50 (RXF 393)	GI50 (SK-MEL-28)	GI50 (SNB-19)	GI50 (SNB-75)	GI50 (UACC-257)
NC(=S)N1N=C(c2ccccc2O)CC1c1ccccc1 (stereo not given)	11.6 µM (inactive)	12.8 µM (inactive)	5.62	3.69 µM (inactive)	4.95 µM (inactive)	7.4 µM (inactive)	8.04 µM (inactive)	15 µM (inactive)	6.35 µM (inactive)	10.5 µM (inactive)	18.2 µM (inactive)	17.9 µM (inactive)	25.5 µM (inactive)	5.24 µM (inactive)	11.6 µM (inactive)	12.4 µM (inactive)	18.5 µM (inactive)	23.3 µM (inactive)	16.9 µM (inactive)	15.3 µM (inactive)
C/C=C/C(C/C=C(\C)CO[Si](C)(C)C(C)(C)C)O[Si](C)(C)C(C)(C)C (stereo not given)	> 100 µM (inactive)	> 100 µM (inactive)	> 100	> 100 µM (inactive)	> 100 µM (inactive)	> 100 µM (inactive)	> 100 µM (inactive)	> 100 µM (inactive)	> 100 µM (inactive)	> 100 µM (inactive)	> 100 µM (inactive)	> 100 µM (inactive)	> 100 µM (inactive)	> 100 µM (inactive)	> 100 µM (inactive)	> 100 µM (inactive)	> 100 µM (inactive)	> 100 µM (inactive)	> 100 µM (inactive)	> 100 µM (inactive)
Nc1nc(Cl)cc(Oc2ccc(Cl)cc2)n1	> 55.2 µM (inactive)	> 57.9 µM (inactive)	> 57.4	> 68.9 µM (inactive)	> 100 µM (inactive)	> 100 µM (inactive)	> 60.5 µM (inactive)	> 100 µM (inactive)	> 70.3 µM (inactive)	> 56.4 µM (inactive)	> 53.2 µM (inactive)	> 56.1 µM (inactive)	> 73.6 µM (inactive)	> 100 µM (inactive)	> 55.6 µM (inactive)	> 100 µM (inactive)	> 57.3 µM (inactive)	> 53.7 µM (inactive)	> 100 µM (inactive)	38.5 µM (inactive)
Oc1cc(F)cc2cccnc12	26.1 µM (inactive)	1.89 µM (inactive)	0.25	0.0887 µM (active)	2.56 µM (inactive)	1.3 µM (inactive)	0.206 µM (active)	3.54 µM (inactive)	0.281 µM (active)	0.0975 µM (active)	0.435 µM (active)	3.29 µM (inactive)	0.324 µM (active)	1.27 µM (inactive)	0.259 µM (active)	3.75 µM (inactive)	48 µM (inactive)	5.31 µM (inactive)	11.8 µM (inactive)	0.402 µM (active)
C=C1C(=O)O[C@H]2[C@H]3O[C@@H](C[C@@H]12)[C@](C)(O)CC[C@@H]1O[C@@]1(C)CCC[C@H]3C	25.8 µM (inactive)	14.2 µM (inactive)	16.9	27 µM (inactive)	78.3 µM (inactive)	20 µM (inactive)	30.3 µM (inactive)	23.3 µM (inactive)	26.9 µM (inactive)	16.7 µM (inactive)	16.5 µM (inactive)	36.2 µM (inactive)	15.7 µM (inactive)	32 µM (inactive)	47.2 µM (inactive)	13 µM (inactive)	32 µM (inactive)	36.3 µM (inactive)	18.5 µM (inactive)	22.9 µM (inactive)
Cc1noc(NS(=O)(=O)c2ccc(NC(=O)c3ccc4[nH]c5ccccc5c(=O)c4c3)cc2)c1C	22.3 µM (inactive)	47.9 µM (inactive)	> 100	27.4 µM (inactive)	50.1 µM (inactive)	36.1 µM (inactive)	21.9 µM (inactive)	> 100 µM (inactive)	> 100 µM (inactive)	23.6 µM (inactive)	39.4 µM (inactive)	> 100 µM (inactive)	32.2 µM (inactive)	36.1 µM (inactive)	50.4 µM (inactive)	36.4 µM (inactive)	35.4 µM (inactive)	87.9 µM (inactive)	32.1 µM (inactive)	> 100 µM (inactive)
